Data published in publication PMC10257758 (Drug development research, 2023).
“And” between values parts separate entries of the source, which are not always exact repeats. Equal entries are not always repeated.

Assays:
CA I = CA I (Homo sapiens, UniProt P00915); experiment: CA-catalysed CO2 hydration stopped-flow inhibition assay, CA I; format: biochemical; conditions: mean from 3 assays
CA II = CA II (Homo sapiens, UniProt P00918); experiment: CA-catalysed CO2 hydration stopped-flow inhibition assay, CA II; format: biochemical; conditions: mean from 3 assays
CA IX = CA IX (Homo sapiens, UniProt Q16790); experiment: CA-catalysed CO2 hydration stopped-flow inhibition assay, CA IX; format: biochemical; conditions: mean from 3 assays
CA XII = CA XII (Homo sapiens, UniProt O43570); experiment: CA-catalysed CO2 hydration stopped-flow inhibition assay, CA XII; format: biochemical; conditions: mean from 3 assays
[1] = MTS cytotoxicity / cell viability assay; format: cell-based, human; conditions: human, HEK293 cells
HEK293 cells = experiment: MTS cytotoxicity / cell viability assay; format: cell-based, human; conditions: low tumorigenic cells (HEK293)

Chain of CA I (P00915 whole entry): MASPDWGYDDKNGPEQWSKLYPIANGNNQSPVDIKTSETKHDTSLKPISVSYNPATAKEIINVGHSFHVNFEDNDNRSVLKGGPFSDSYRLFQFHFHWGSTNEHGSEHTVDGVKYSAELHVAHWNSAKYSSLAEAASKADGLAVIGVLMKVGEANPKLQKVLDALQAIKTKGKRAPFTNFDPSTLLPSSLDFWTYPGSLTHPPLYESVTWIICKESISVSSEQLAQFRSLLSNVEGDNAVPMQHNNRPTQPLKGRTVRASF
Chain of CA XII (O43570 25-354): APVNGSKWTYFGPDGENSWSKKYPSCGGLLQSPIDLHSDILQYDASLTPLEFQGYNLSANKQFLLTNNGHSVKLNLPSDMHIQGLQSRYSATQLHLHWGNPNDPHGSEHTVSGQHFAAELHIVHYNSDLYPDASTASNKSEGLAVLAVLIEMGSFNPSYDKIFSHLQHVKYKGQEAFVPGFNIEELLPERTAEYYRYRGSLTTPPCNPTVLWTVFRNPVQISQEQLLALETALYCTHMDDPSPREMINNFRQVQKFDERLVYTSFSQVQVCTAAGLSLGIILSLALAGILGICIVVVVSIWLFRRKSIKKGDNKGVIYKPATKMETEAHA

Row | SMILES | Ki (CA I; cells/sentences stated in nM) | Ki (CA II; cells/sentences stated in nM) | Ki (CA IX; cells/sentences stated in nM) | Ki (CA XII; cells/sentences stated in nM) | Ki (CA I; μM unless stated) | Ki (CA II; μM unless stated) | Ki (CA IX; μM unless stated) | Ki (CA XII; μM unless stated) | viability at 72 h, 100 µM [1] | general cytotoxic effect (HEK293 cells)
1 | NS(=O)(=O)c1ccc(NC(=O)c2cc3cc(Cl)cc(Cl)c3oc2=O)cc1 [9d, 6,8-Dichloro-2-oxo-N-(4-sulfamoylphenyl)-2H-chromene-3-carboxamide] | 2320 nM | 238 nM | 105 nM | 46.3 nM | – | – | – | – | – | –
2 | NS(=O)(=O)c1ccc(NC(=O)c2cc3cc(Cl)ccc3oc2=O)cc1 [9b, 6-Chloro-2-oxo-N-(4-sulfamoylphenyl)-2H-chromene-3-carboxamide] | 818 nM | 64 nM and 63.5 nM | 52.3 nM | 28.4 nM | – | – | – | – | – | –
3 | CCOC(=O)c1cc2ccc(OCC(=O)Nc3ccc(S(N)(=O)=O)cc3)cc2oc1=O [5a, Ethyl 2-oxo-7-(2-oxo-2-((4-sulfamoylphenyl)amino)ethoxy)-2H-chromene-3-carboxylate] | 738 nM | – | – | 20.3 nM | – | – | – | – | – | –
4 | NS(=O)(=O)c1ccc(NC(=O)c2cc3cc(Br)ccc3oc2=O)cc1 [9c, 6-Bromo-2-oxo-N-(4-sulfamoylphenyl)-2H-chromene-3-carboxamide] | 1420 nM | 85.4 nM | 67.6 nM | 16.2 nM | – | – | – | – | – | –
5 | Cc1nnc(NS(=O)(=O)c2ccc(NC(=O)c3cc4cc(Br)ccc4oc3=O)cc2)s1 [13c, 6-Bromo-N-(4-(N-(5-methyl-1,3,4-thiadiazol-2-yl)sulfamoyl)phenyl)-2-oxo-2H-chromene-3-carboxamide] | – | – | – | – | > 100000 nM | > 100000 nM | > 100000 nM | > 100000 nM | – | –
6 | COc1ccc2cc(C(=O)Nc3ccc(S(N)(=O)=O)cc3)c(=O)oc2c1 [9h, 7-Methoxy-2-oxo-N-(4-sulfamoylphenyl)-2H-chromene-3-carboxamide] | – | – | 31.8 nM | – | – | – | – | – | – | –
7 | CCOC(=O)c1cc2ccc(OCC(=O)Nc3ccc(S(=O)(=O)NC(C)=O)cc3)cc2oc1=O [5c, Ethyl 7-(2-((4-(N-acetylsulfamoyl)phenyl)amino)-2-oxoethoxy)-2-oxo-2H-chromene-3-carboxylate] | – | – | – | – | > 100000 nM | > 100000 nM | 6100 nM | 1900 nM | – | –
8 | COc1ccc2oc(=O)c(C(=O)Nc3cc(C(F)(F)F)c(S(N)(=O)=O)cc3S(N)(=O)=O)cc2c1 [18f, N-(2,4-disulfamoyl-5-(trifluoromethyl)phenyl)-6-methoxy-2-oxo-2H-chromene-3-carboxamide] | – | – | – | – | – | – | – | – | 97% | no general cytotoxic effect
9 | CCOC(=O)c1cc2ccc(OCC(=O)Nc3ccc(S(=O)(=O)Nc4ncnc(OC)c4OC)cc3)cc2oc1=O [5b, Ethyl 7-(2-((4-(N-(5,6-dimethoxypyrimidin-4-yl)sulfamoyl)phenyl)amino)-2-oxoethoxy)-2-oxo-2H-chromene-3-carboxylate] | – | – | – | – | > 100000 nM | > 100000 nM | > 100000 nM | > 100000 nM | – | –
10 | COc1ccc(NS(=O)(=O)c2ccc(NC(=O)c3cc4cc(Cl)ccc4oc3=O)cc2)nn1 [11b, 6-Chloro-N-(4-(N-(6-methoxypyridazin-3-yl)sulfamoyl)phenyl)-2-oxo-2H-chromene-3-carboxamide] | – | – | – | – | > 100000 nM | > 100000 nM | > 100000 nM | > 100000 nM | – | –
11 | COc1cc(NS(=O)(=O)c2ccc(NC(=O)c3cc4cc(Br)ccc4oc3=O)cc2)nc(OC)n1 [14c, 6-Bromo-N-(4-(N-(2,6-dimethoxypyrimidin-4-yl)sulfamoyl)phenyl) −2-oxo-2H-chromene −3-carboxamide] | – | – | – | – | > 100000 nM | > 100000 nM | > 100000 nM | > 100000 nM | – | –
12 | COc1ccc(NS(=O)(=O)c2ccc(NC(=O)c3cc4cc(Cl)cc(Cl)c4oc3=O)cc2)nn1 [11d, 6,8-Dichloro-N-(4-(N-(6-methoxypyridazin-3-yl)sulfamoyl)phenyl)-2-oxo-2H-chromene-3-carboxamide] | – | – | – | – | > 100000 nM | > 100000 nM | > 100000 nM | > 100000 nM | – | –

Further lines, with some results ahead:

Row | Ki (CA I; cells/sentences stated in nM) | Ki (CA II; cells/sentences stated in nM) | Ki (CA IX; cells/sentences stated in nM) | Ki (CA XII; cells/sentences stated in nM) | Ki (CA I; μM unless stated) | Ki (CA II; μM unless stated) | Ki (CA IX; μM unless stated) | Ki (CA XII; μM unless stated) | SMILES | viability at 72 h, 100 µM [1] | general cytotoxic effect (HEK293 cells)
13 | 1960 nM | 76.3 nM | 14.4 nM | 54.2 nM | – | – | – | – | NS(=O)(=O)c1cccc(NC(=O)c2cc3cc(Br)ccc3oc2=O)c1 [16c, 6-Bromo-2-oxo-N-(3-sulfamoylphenyl)-2H-chromene-3-carboxamide] | – | –
14 | 74.4 nM | 23 nM | 19.6 nM | 65.7 nM | – | – | – | – | CCN(CC)c1ccc2cc(C(=O)OCC(=O)Nc3ccc(S(N)(=O)=O)cc3)c(=O)oc2c1 [compound 22, 2-Oxo-2-((4-sulfamoylphenyl)amino)ethyl-7-(diethylamino)-2-oxo-2H-chromene-3-carboxylate] | – | –
15 | 774 nM | 212 nM | 5 nM | 52 nM and 52.1 nM | – | – | – | – | COc1ccc2oc(=O)c(C(=O)Nc3cccc(S(N)(=O)=O)c3)cc2c1 [16f, 6-Methoxy-2-oxo-N-(3-sulfamoylphenyl)-2H-chromene-3-carboxamide] | – | –
16 | – | – | – | – | > 100000 nM | 46800 nM | 910 nM | 10600 nM | CC(=O)NS(=O)(=O)c1ccc(NC(=O)c2cc3cc(Br)ccc3oc2=O)cc1 [15c, N-(4-(N-acetylsulfamoyl)phenyl)-6-bromo-2-oxo-2H-chromene-3-carboxamide] | – | –
17 | – | – | – | – | > 100000 nM | 10300 nM | – | 6300 nM | CC(=O)NS(=O)(=O)c1ccc(NC(=O)c2cc3ccccc3oc2=O)cc1 [15e, N-(4-(N-acetylsulfamoyl)phenyl)-2-oxo-2H-chromene-3-carboxamide] | – | –
18 | 193 nM | 53.5 nM | 18.9 nM | 69.8 nM | – | – | – | – | NS(=O)(=O)c1cccc(NC(=O)c2cc3ccccc3oc2=O)c1 [16e, 2-Oxo-N-(3-sulfamoylphenyl)-2H-chromene-3-carboxamide] | – | –
19 | 225 nM | 75.2 nM | 15.2 nM | 49.5 nM | – | – | – | – | NS(=O)(=O)c1cccc(NC(=O)c2cc3cc(F)ccc3oc2=O)c1 [16i, 6-Fluoro-2-oxo-N-(3-sulfamoylphenyl)-2H-chromene-3-carboxamide] | – | –
20 | – | – | – | – | > 100000 nM | > 100000 nM | > 100000 nM | > 100000 nM | COc1cc(NS(=O)(=O)c2ccc(NC(=O)c3cc4ccccc4oc3=O)cc2)nc(OC)n1 [14e, N-(4-(N-(2,6-dimethoxypyrimidin-4-yl)sulfamoyl)phenyl)-2-oxo-2H-chromene-3-carboxamide] | – | –
